Laboratory results from patent publication US20020037531A1, “Expression cloning of protein targets for phospholipids” (priority 1999, published 2002).
Where a chain is given by its changes, count along the chain named.

Tests used:
PHISH = target: T1, PHISH (Mus musculus, UniProt Q9QXT1); experiment: Competition binding of non-biotinylated lipids against biotinylated PtdIns-3,4,5-P3 on avidin beads; design: species or system murine; details: for relative affinity for PHISH in competition binding studies: FIG. 4B; for displacement of PHISH from PtdIns-3,4,5-P3-biotin bound to avidin beads: FIG. 4B legend, compared with PtdIns-4,5-P2
T1 construct: the gene for PHISH isolated from the expression screen encodes the entire protein; made in house; host or cells: in vitro transcription/translation (reticulocyte lysate) of a clone from a murine spleen cDNA library in pCS2(+)
T1 sequence (Q9QXT1 1-280): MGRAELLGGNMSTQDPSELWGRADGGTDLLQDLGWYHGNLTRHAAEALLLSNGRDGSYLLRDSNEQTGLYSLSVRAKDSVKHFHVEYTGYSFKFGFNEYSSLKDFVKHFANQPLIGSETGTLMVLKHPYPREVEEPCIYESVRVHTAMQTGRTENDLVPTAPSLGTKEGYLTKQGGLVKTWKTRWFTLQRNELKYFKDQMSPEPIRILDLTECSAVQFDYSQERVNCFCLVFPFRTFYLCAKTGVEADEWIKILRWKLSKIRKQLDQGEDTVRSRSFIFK
Protocol: (§1) Binding and Isolation of Radiolabeled In Vitro Translated Proteins with Biotinylated Phosphoinositides. Avidin beads (Ultralink immobilized Neutravidin™, Pierce Chemical) were washed twice with 5 volumes of wash/binding (WB) buffer (10 mM HEPES pH=7.4, 150 mM NaCl, 0.5% NP-40, 5 mM DTT). The beads were then reconstituted in 2×volume of WB buffer and the biotinylated phosphoinositide was added. Generally, 0.1 μl of 100 μM biotinylated lipid was bound per 1 μl of packed avidin beads. The biotinylated lipid was incubated with the beads for 1-2 hours at 4° C. with gentle agitation and then washed twice with 10×-bead volume of WB buffer to remove excess ligand. Control beads without biotinylated lipid were prepared in an identical manner but without the addition of the lipid. 5 μl of the ^35S-labelling reaction containing the in vitro transcribed/translated protein was then added to the tubes and the protein was allowed to bind for 2 hours at 4° C. with gentle agitation. The tubes were then centrifuged briefly, the beads were washed 2×with 0.5 ml WB buffer, and the bound proteins were eluted by boiling the beads in 20 μl Laemmli sample buffer containing 5% 2-mercaptoethanol. The proteins were then separated on a 13.75% SDS-PAGE gel. Following electrophoresis the gel was soaked in EnHance (Dupont/NEN) for 1 hour and then in a 7.5% w/v solution of PEG-3350 for 1 hour. The gel was then dried and subjected to autoradiography.
Competition Binding of Isolated Proteins for Non-biotinylated Lipids over Biotinylated Lipids. […] Binding was quantitated by measuring the intensities of bands from the autoradiogram or by scintillation counting of the eluted proteins in Laemmli sample buffer using Opti-fluor (Packard). Binding curves were modeled by the equation: […]
where % bound represents the quantity of protein bound to the biotinylated lipid coated beads in the presence of a concentration C of competing lipid. IC50 is the molar excess of competitor C required to reduce the % bound to 50% of its maximal value in the absence of competitor.
In Vitro Translation Expression Cloning. A murine spleen cDNA library containing 2×10^5 independent clones was divided into 1700 individual small pools. The cDNAs in this library had been cloned into the in vitro transcription vector pCS2(+) under control of the SP6 promoter. Individual cDNAs from positive pools were isolated from the other cDNAs of the pool using a 96-well format as described previously. The individual cDNAs were sequenced (Harvard Biopolymer Facility) and compared with known sequences by searching GenBank databases.

PH domain of PDK1 = target: T2, PH domain of PDK1 (Homo sapiens, UniProt O15530); details: literature, relative affinities; cited from earlier work
T2 sequence (O15530 459-550 limits assumed): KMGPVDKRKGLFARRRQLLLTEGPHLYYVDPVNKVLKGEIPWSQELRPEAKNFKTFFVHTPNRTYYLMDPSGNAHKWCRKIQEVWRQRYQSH

PH domain of EST684797 = target: T3, PH domain of EST684797 (Homo sapiens, UniProt Q9UN19); details: literature; cited from earlier work
T3 sequence (Q9UN19 164-259): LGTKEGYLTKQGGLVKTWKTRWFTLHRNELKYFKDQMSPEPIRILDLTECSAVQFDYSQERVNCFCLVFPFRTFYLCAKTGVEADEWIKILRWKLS

[1] = target: T4, PDK1 (C-terminal fragment with PH domain) (Mus musculus, UniProt Q9Z2A0); experiment: Binding of 35S-labeled in vitro translated protein to avidin beads pre-bound with biotinylated phosphoinositide; design: species or system murine; details: FIG. 3A top panel right
T4 construct: the first in-frame AUG codon appears at the end of the kinase domain such that only the entire PH domain of PDK1 is translated; made in house; host or cells: in vitro transcription/translation (reticulocyte lysate) of a clone from a murine spleen cDNA library in pCS2(+)
T4 sequence (Q9Z2A0 462-553 limits assumed): T2 sequence (O15530 459-550 limits assumed) with R88Q, H92N
Protocol: as §1, with “The gel was then dried and subjected to autoradiography.” left out

PH domain of Akt = PH domain of Akt (Homo sapiens, UniProt P31749); details: two published studies; cited from earlier work
[2] = target: MBP-Akt PH fusion protein (Mus musculus, UniProt P31750); experiment: Competition binding of non-biotinylated lipids against biotinylated PtdIns-3,4,5-P3 on avidin beads; details: FIG. 2C legend; compared with PtdIns-4,5-P2
Chain of MBP-Akt PH fusion protein (P31750 1-130): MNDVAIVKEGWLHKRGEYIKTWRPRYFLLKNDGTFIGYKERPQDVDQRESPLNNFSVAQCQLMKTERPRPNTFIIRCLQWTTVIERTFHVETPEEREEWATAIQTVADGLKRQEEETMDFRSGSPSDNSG
Protocol: The proteins were expressed by transcribing/translating 0.01-1 μg of DNA of MBP or MBP-Akt PH with the Promega TnT Coupled Reticulocyte Lysate System using SP6 RNA polymerase and ^35S-methionine (in vivo labeling grade, Amersham) according to the manufacturers protocol.
Binding and Isolation of Radiolabeled In Vitro Translated Proteins with Biotinylated Phosphoinositides. Avidin beads (Ultralink immobilized Neutravidin™, Pierce Chemical) were washed twice with 5 volumes of wash/binding (WB) buffer (10 mM HEPES pH=7.4, 150 mM NaCl, 0.5% NP-40, 5 mM DTT). The beads were then reconstituted in 2×volume of WB buffer and the biotinylated phosphoinositide was added. Generally, 0.1 μl of 100 μM biotinylated lipid was bound per 1 μl of packed avidin beads. The biotinylated lipid was incubated with the beads for 1-2 hours at 4° C. with gentle agitation and then washed twice with 10×-bead volume of WB buffer to remove excess ligand. […]
Competition Binding of Isolated Proteins for Non-biotinylated Lipids over Biotinylated Lipids. […] Binding was quantitated by measuring the intensities of bands from the autoradiogram or by scintillation counting of the eluted proteins in Laemmli sample buffer using Opti-fluor (Packard). […]

Chain of PH domain of Akt (P31749 5-108 limits assumed): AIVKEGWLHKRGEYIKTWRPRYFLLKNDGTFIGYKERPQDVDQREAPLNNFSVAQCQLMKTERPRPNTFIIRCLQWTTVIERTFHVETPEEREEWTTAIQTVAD

relative affinity for PHISH in competition binding studies (PHISH) | displacement of PHISH from PtdIns-3,4,5-P3-biotin bound to avidin beads (PHISH) | displacement of MBP-PH from PtdIns-3,4,5-P3-biotin [2] | Substance | affinity for the PH domain of PDK1 (PH domain of PDK1) | binding to the PH domain of EST684797 (PH domain of EST684797) | binding of the expressed purified PDK1 fragment (single clone) [1] | rank order of affinities for the PH domain of Akt (PH domain of Akt)
equal affinity | preferentially displace | – | phosphatidylinositol-3,4,5-trisphosphate [PtdIns-3,4,5-P3] | four-fold higher affinity | binds tightly and selectively | – | –
equal affinity | preferentially displace | preferentially displace | phosphatidylinositol-3,4-bisphosphate [PtdIns-3,4-P2] | – | binds tightly and selectively | apparent lower affinity than for PtdIns-3,4,5-P3 | PtdIns-3,4,5-P3>PtdIns-3,4-P2>>PtdIns-4,5-P2
significantly lower affinity | – | – | phosphatidylinositol-4,5-bisphosphate [PtdIns-4,5-P2] | much lower affinity | – | – | PtdIns-3,4,5-P3>PtdIns-3,4-P2>>PtdIns-4,5-P2
